Source: patent publication US8883841B2, “Oncogenic ras-specific cytotoxic compound and methods of use thereof” (The Board of Regents of the University of Texas System, priority 2005, dated 2014)
Where two headings read alike, the source gives them in different places.

How the values were obtained:
T29Kt1 cells [1] = details: Table 1, value is the negative log10 of mol/L
T29Kt1 cells [2] = assay: cells; details: Homo sapiens, T29Kt1, read-out: IC50 in T29k cells, Table 1
H460 cells [3] = assay: cells; details: Homo sapiens
H460 cells [4] = details: for IC50 in H460 cells: Table 1, value is the negative log10 of mol/L
Hct116 = assay: Cell viability, Hct116 colon cancer cells; format: cell-based, human; details: for IC50: Homo sapiens
Heb44 = assay: Cell viability, Heb44 kidney cells; format: cell-based
Capanc-1 = assay: Cell viability, Capanc-1 pancreatic cancer cells; format: cell-based, human; details: for IC50: Homo sapiens, Pancreatic cancer cell
AsPC-1 = assay: Cell viability, AsPC-1 pancreatic cancer cells; format: cell-based, human; details: for IC50: Homo sapiens
A549CK8 = assay: Cell viability, A549CK8 lung cancer cells; format: cell-based, human; details: for IC50: Homo sapiens, read-out: IC50 (−LogM) (converted)
DLD1 = assay: Cell viability, DLD1 colon cancer cells; format: cell-based, human; details: for IC50: Homo sapiens
CT116P53 = assay: Cell viability, CT116P53 colon cancer cells; format: cell-based, human; details: for IC50: Homo sapiens, read-out: IC50 (−LogM) (converted)
miapac = assay: Cell viability, miapac pancreatic cancer cells; format: cell-based, human; details: for IC50: Homo sapiens, Pancreatic cancer cell, read-out: IC50 (−LogM) (converted)
Heb46 = assay: Cell viability, Heb46 kidney cells; format: cell-based
HKE3 = assay: Cell viability, HKE3 colon cancer cells; format: cell-based, human; details: for IC50: Homo sapiens
H322 cells = assay: Cell viability, H322 lung cancer cells; format: cell-based, human; details: for IC50: Homo sapiens
H226B cells = assay: Cell viability, H226B lung cancer cells; format: cell-based, human; details: for IC50: Homo sapiens
H1299 cells = assay: Cell viability, H1299 lung cancer cells; format: cell-based, human; details: for IC50: Homo sapiens, NCI-H1299, read-out: IC50 (−LogM), h1299, Lung (converted)
Sw620 = assay: Cell viability, Sw620 colon cancer cells; format: cell-based, human; details: Sw620, Colon
A549 cells = assay: Cell viability, A549 lung cancer cells; format: cell-based, human; details: for IC50: Homo sapiens, A549, read-out: IC50 (−LogM), A549, Lung (converted)
[5] = NCI-H460, read-out: IC50 in H460 cells, Table 1
[6] = NCI-H460, read-out: IC50 (−LogM), H460, Lung (converted)
[7] = HCT-116, read-out: IC50 (−LogM), Hct116, Colon (converted)
[8] = read-out: IC50 (−LogM), capanc1, Pancrease (converted)
[9] = ASPC1, read-out: IC50 (−LogM), ASPC1, Pancrease (converted)
[10] = DLD-1, read-out: IC50 (−LogM) (converted)
[11] = read-out: IC50 (−LogM), HKE3, Colon, second HKE3 line (converted)
[12] = read-out: IC50 (−LogM), H226B, Lung, first H226B line (converted)
[13] = read-out: IC50 (−LogM), H226B, Lung, second H226B line (converted)
[14] = read-out: IC50 (−LogM), HKE3, Colon, first HKE3 line (converted)

Molecule: NC(=S)NN=Cc1cn(Cc2ccccc2)c2ccccc12 [Oncrasin K031, Hydrazinecarbothioamide, 2-[[1-(phenylmethyl)-1H-indol-3-yl]methylene]-(9CI)]
- IC50 in T29k cells (T29Kt1 cells [1]): 5

Molecule: O=C(CCCCCCC(=O)N/N=C/c1cn(Cc2ccc(Cl)cc2)c2ccccc12)CCCCC1SCC2NC(=O)NC21 (stereo not shown) [Oncrasin K130]
- IC50 (T29Kt1 cells [2]): 2.51 µM
- IC50 (H460 cells [3]; [5]): 0.398 µM

Molecule: O=Cc1cn(Cc2ccc(Cl)cc2Cl)c2ccccc12 [Oncrasin K050, 1-(2,4-dichlorobenzyl)-1H-indole-3-carbaldehyde]
- IC50 in H460 cells (H460 cells [4]; listed as K50): 6.3
- IC50 in H460 cells (H460 cells [4]): 7
- IC50 in T29k cells (T29Kt1 cells [1]; listed as K50): 5
- IC50 in T29k cells (T29Kt1 cells [1]): 5.8

Molecule: O=Cc1cn(Cc2ccc([N+](=O)[O-])cc2)c2ccccc12 [Oncrasin K70, 1-(4-nitrobenzyl)-1H-indole-3-carbaldehyde]
- IC50 (T29Kt1 cells [2]): 10 µM
- IC50 (H460 cells [3]; [5]): 0.501 µM

Molecule: OCc1cn(Cc2cccc(C(F)(F)F)c2)c2ccccc12 [Oncrasin K63, {1-[3-(trifluoromethyl)benzyl]-1H-indol-3-yl}methanol]
- IC50 (T29Kt1 cells [2]): 0.562 µM
- IC50 (Hct116; HCT-116, Hct116, Colon, read-out: IC50 (−LogM) (converted)): 7.94 µM
- IC50 (Heb44): 0.251 µM
- IC50 (Capanc-1; capanc1, Pancrease, read-out: IC50 (−LogM) (converted)): 31.6 µM
- IC50 (H460 cells [3]; [6]): 0.0398 µM
- IC50 (H460 cells [3]; [5]): 0.0398 µM
- IC50 (AsPC-1; ASPC1, Pancrease, read-out: IC50 (−LogM) (converted)): 10 µM
- IC50 (A549CK8; A549CK8, Lung): 10 µM
- IC50 (DLD1; DLD-1, DLD1, Colon, read-out: IC50 (−LogM) (converted)): < 31.6 µM
- IC50 (CT116P53; CT116P53, Colon): < 31.6 µM
- IC50 (miapac; miapac, Pancrease): < 31.6 µM
- IC50 (Heb46): 10 µM
- IC50 (HKE3; HKE3, Colon, first HKE3 line, read-out: IC50 (−LogM) (converted)): 1 µM
- IC50 (HKE3; HKE3, Colon, second HKE3 line, read-out: IC50 (−LogM) (converted)): 1.58 µM
- IC50 (H322 cells; NCI-H322, H322, Lung, read-out: IC50 (−LogM) (converted)): 31.6 µM
- IC50 (H226B cells; H226B, Lung, first H226B line, read-out: IC50 (−LogM) (converted)): 0.316 µM
- IC50 (H226B cells; H226B, Lung, second H226B line, read-out: IC50 (−LogM) (converted)): 1.58 µM

Molecule: O=Cc1cn(Cc2ccc(C(F)(F)F)cc2)c2ccccc12 [Oncrasin K64, 1H-Indole-3-carboxaldehyde, 1-[[4-(trifluoromethyl)phenyl]methyl]-(9CI)]
- IC50 in H460 cells (H460 cells [4]): 5.8

Molecule: OCc1cn(Cc2cccc(Cl)c2)c2ccccc12 [Oncrasin K72, 1H-Indole-3-methanol, 1-[(3-chlorophenyl)methyl]-(9CI)]
- IC50 in H460 cells (H460 cells [4]): 5.9
- IC50 in T29k cells (T29Kt1 cells [1]): 5.75

Molecule: OCc1cn(Cc2ccc(Cl)cc2Cl)c2ccccc12 [Oncrasin K74, 1H-Indole-3-methanol, 1-[(2,4-dichlorophenyl)methyl]-]
- IC50 (T29Kt1 cells [2]): 1.58 µM
- IC50 (H460 cells [3]; [5]): 0.0794 µM

Molecule: O=S(=O)(Nc1nccs1)c1ccc(N=Cc2cn(Cc3ccccc3)c3ccccc23)cc1 [Oncrasin K042, Sulfanilamide, N4-[(1-benzylindol-3-yl)methylene]-N1-2-thiazolyl-(8CI)]
- IC50 (−LogM) (Hct116; Hct116, Colon): 5 −LogM
- IC50 (−LogM) (Heb44): 6.7 −LogM
- IC50 (−LogM) (Capanc-1; capanc1, Pancrease): 5.5 −LogM
- IC50 (−LogM) (AsPC-1; ASPC1, Pancrease): 5 −LogM
- IC50 (−LogM) (A549CK8; A549CK8, Lung): 5.3 −LogM
- IC50 (−LogM) (DLD1; DLD1, Colon): >4.5 −LogM
- IC50 (−LogM) (H460 cells [4]; H460, Lung): 8 −LogM
- IC50 in H460 cells (H460 cells [4]): 8
- IC50 (−LogM) (CT116P53; CT116P53, Colon): >4.5 −LogM
- IC50 in T29k cells (T29Kt1 cells [1]): 6
- IC50 (−LogM) (miapac; miapac, Pancrease): >4.5 −LogM
- IC50 (−LogM) (Heb46): 5.4 −LogM
- IC50 (−LogM) (HKE3; HKE3, Colon, first HKE3 line): 6 −LogM
- IC50 (−LogM) (HKE3; HKE3, Colon, second HKE3 line): 5 −LogM
- IC50 (−LogM) (H322 cells; H322, Lung): >4.5 −LogM
- IC50 (−LogM) (H1299 cells; h1299, Lung): >4.5 −LogM
- IC50 (−LogM) (H226B cells; H226B, Lung, first H226B line): 5.5 −LogM
- IC50 (−LogM) (H226B cells; H226B, Lung, second H226B line): 5.3 −LogM
- IC50 (−LogM) (Sw620): >4.5 −LogM
- IC50 (−LogM) (A549 cells; A549, Lung): 5 −LogM

Molecule: O=Cc1cn(Cc2ccccc2F)c2ccccc12 [Oncrasin K051, 1-(2-fluorobenzyl)-1H-indole-3-carbaldehyde]
- IC50 (T29Kt1 cells [2]): 0.316 µM
- IC50 (Hct116; [7]): 10 µM
- IC50 (Heb44): 0.316 µM
- IC50 (Capanc-1; [8]): 31.6 µM
- IC50 (H460 cells [3]; [6]): 0.1 µM
- IC50 (H460 cells [3]; [5]): 0.1 µM
- IC50 (AsPC-1; [9]): 7.94 µM
- IC50 (A549CK8): 10 µM
- IC50 (DLD1; [10]): < 31.6 µM
- IC50 (CT116P53): < 31.6 µM
- IC50 (miapac): < 31.6 µM
- IC50 (Heb46): 10 µM
- IC50 (HKE3; [11]): 10 µM
- IC50 (H1299 cells): 7.94 µM
- IC50 (H226B cells; [12]): 0.794 µM
- IC50 (H226B cells; [13]): 10 µM
- IC50 (A549 cells): 12.6 µM

Molecule: O=Cc1cn(Cc2cccc(C(F)(F)F)c2)c2ccccc12 [Oncrasin K62, 1-[3-(trifluoromethyl)benzyl]-1H-indole-3-carbaldehyde]
- IC50 (T29Kt1 cells [2]): 5.62 µM
- IC50 (Hct116; [7]): 12.6 µM
- IC50 (Heb44): 0.1 µM
- IC50 (Capanc-1; [8]): 31.6 µM
- IC50 (H460 cells [3]; [6]): 0.0158 µM
- IC50 (H460 cells [3]; [5]): 0.0138 µM
- IC50 (AsPC-1; [9]): 15.8 µM
- IC50 (A549CK8): 7.94 µM
- IC50 (DLD1; [10]): < 31.6 µM
- IC50 (CT116P53): < 31.6 µM
- IC50 (miapac): < 31.6 µM
- IC50 (Heb46): 10 µM
- IC50 (HKE3; [14]): 3.16 µM
- IC50 (HKE3; [11]): 5.01 µM
- IC50 (H322 cells; NCI-H322, read-out: IC50 (−LogM) (converted)): 10 µM
- IC50 (H1299 cells): 10 µM
- IC50 (H226B cells; [12]): 3.16 µM
- IC50 (H226B cells; [13]): 10 µM
- IC50 (A549 cells): 10 µM

Molecule: OCN1CC(Cc2ccc(C(F)(F)F)cc2)c2ccccc21 (stereo not shown) [Oncrasin K65]
- IC50 (T29Kt1 cells [2]): 1.26 µM
- IC50 (H460 cells [3]; [5]): 1.26 µM

Molecule: CC(=O)c1cn(Cc2cccc(Cl)c2)c2ccccc12 [Oncrasin K058]
- IC50 (T29Kt1 cells [2]): 31.6 µM

Molecule: 4H-1,2,4-Triazol-4-amine, N-[[1-[(2,4-dichlorophenyl)methyl]-1H-indol-3-yl]methyle> [Oncrasin K002]
- IC50 in H460 cells (H460 cells [4]): 4.8

Molecule: O=Cc1cn(Cc2ccccc2)c2ccccc12 [Oncrasin K014, 1-Benzylindole-3-carboxaldehyde]
- IC50 (T29Kt1 cells [2]): 5.01 µM
- IC50 (Hct116; [7]): 7.94 µM
- IC50 (Heb44): 0.501 µM
- IC50 (Capanc-1; [8]): 31.6 µM
- IC50 (H460 cells [3]; [6]): 0.0251 µM
- IC50 (H460 cells [3]; [5]): 0.0251 µM
- IC50 (AsPC-1; [9]): 7.94 µM
- IC50 (A549CK8): 6.31 µM
- IC50 (DLD1; [10]): < 31.6 µM
- IC50 (CT116P53): < 31.6 µM
- IC50 (miapac): < 31.6 µM
- IC50 (Heb46): 3.16 µM
- IC50 (HKE3; [14]): 1 µM
- IC50 (HKE3; [11]): 5.01 µM
- IC50 (H226B cells; [12]): 2 µM
- IC50 (H226B cells; [13]): 31.6 µM
- IC50 (A549 cells): 31.6 µM

Molecule: CC(=O)Oc1cn(Cc2ccccc2)c2ccccc12 [Oncrasin K047, Indoxyl, 1-benzyl-, acetate (6CI)]
- IC50 in H460 cells (H460 cells [4]): 5
